In patent US6352976B1, “Selective inhibitors of MMP-12” (Aventis Pharmaceuticals Inc., priority 1998, dated 2002):
Structures can show the parent of a compound that is named as a salt.

Key:
[1] = biological target: T1, MMP-12 (macrophage metalloelastase) (Homo sapiens, UniProt P39900); assay: Determination of the inhibition constant (Ki) for MMP-12, fluorogenic substrate; assay type: biochemical; details: pH 7.6
T1 construct: made in house
Method: MMP-12 (EC3.4.24.65) was cloned, expressed and purified according to Shapiro, S. D. et al., J Biol. Chem. 268, 23824-23829 (1993). […] Aliquots of MMP-12 were stored at −70° C.
The potency of inhibitors of MMP-12 was measured using either quartz cuvettes or microtiter plates. The activity of MMP-12 was measured using a fluorogenic substrate, Mca-Pro-Leu-Gly-Leu-Dpa-Ala-Arg-NH2 SEQ ID NO1, Knight, C. G. et al., FEBS Lett. 296,263-266 (1992), at 25° C. in an assay buffer containing 50 mM Tris, pH 7.6, 0.2 M sodium chloride, 50 mM calcium chloride, and 0.02% Brij-35. The increase in fluorescence due to cleavage of Gly-Leu peptide bond by MMP-12 was monitored with a Perkin-Elmer LS50B Fluorimeter (λex 328 nm, λem 393 nm, excitation slit 2.5, emission slit 10) for the cuvette assay and with a Molecular Devices Fmax fluorescence plate reader (λex 320 nm, λem 405 nm) for the microtiter plate assay. Substrate and inhibitor stock solutions were made in N,N-dimethylformamide (DMF) and 0.1% HCl-DMF, respectively.
Ki values were determined using the cuvette method by preparing a series of intermediate inhibitors solutions in 0.1% HCl-DMF and mixing the inhibitor with substrate (final concentration 2 μM) in a quartz cuvette containing 2 ml of assay buffer. MMP-12 was added to start the reaction at a concentration of 2 nM and progress curves were generated. For routine measurement of a Ki value for a reversible competitive inhibitor, the initial rates in the presence of at least four inhibitor concentrations (two concentrations above and two concentrations below the Ki) were measured [S]=2 μM (<<Km) and [MMP-12]=2 nM. Under these conditions, the measured Ki,app is close to the true Ki.
Ki values were determined using the microtiter plate method in a manner similar to that described for the cuvette method with some modifications. Four different inhibitor concentrations (50 μl in assay buffer) of each compound were added to separate wells of a microtiter plate and substrate was added (100 μl) to get a final concentration of […]. MMP-12 was added to a final concentration of 2 nM (50 μl) to start the reaction. Cleavage of substrate was recorded every 30 seconds for 30 minutes and progress curves were generated.
(§1) The Ki for a competitive inhibitor was calculated using: V0/Vi=(1+[I]/Ki,app) and Ki=Ki,app/(1+[S]/Km), where V0 is the initial rate in the absence of inhibitor, Vi is the initial rate in the presence of inhibitor at the concentration of [I], [S] is the substrate concentration, and Km is the Michaelis constant. If slow binding is observed (i.e. if the approach to the binding equilibrium is slow), the final steady-state rate rather than the initial rate is taken as Vi.

[2] = biological target: T2, MMP-1 (interstitial collagenase) (Homo sapiens, UniProt P03956); assay: Determination of inhibition constant (Ki) for MMP-1, fluorogenic substrate; assay type: biochemical; details: pH 7.6
T2 construct: The active MMP-1 was obtained by treatment of proMMP-1 with trypsin; endogenous in cells; host or cells: human rheumatoid synovial fibroblasts stimulated with macrophage-conditioned medium; secreted proenzyme purified from culture medium
T2 sequence (P03956 100-469): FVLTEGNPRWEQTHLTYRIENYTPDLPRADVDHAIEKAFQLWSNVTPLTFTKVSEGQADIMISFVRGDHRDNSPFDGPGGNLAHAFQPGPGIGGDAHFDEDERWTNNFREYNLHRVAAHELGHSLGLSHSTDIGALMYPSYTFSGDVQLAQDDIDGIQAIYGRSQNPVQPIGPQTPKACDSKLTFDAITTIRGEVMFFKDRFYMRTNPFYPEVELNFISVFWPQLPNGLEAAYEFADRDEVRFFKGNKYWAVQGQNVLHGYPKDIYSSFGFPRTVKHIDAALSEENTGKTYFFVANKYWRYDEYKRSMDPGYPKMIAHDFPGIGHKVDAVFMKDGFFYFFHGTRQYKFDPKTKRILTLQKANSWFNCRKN
Method: ProMMP-1 (EC3.4.24.7; interstitial collagenase) was purified from culture medium of human rheumatoid synovial fibroblasts stimulated with macrophage-conditioned medium according to Okada, Y. et al., J. Biol. Chem. 261, 14245-14255 (1986). The active MMP-1 was obtained by treatment of proMMP-1 with trypsin (5 μg/mL) at 37° C. for 30 minutes, followed by addition of soybean trypsin inhibitor (50 μg/mL).
The activated MMP-1 is assayed using a fluorogenic substrate, Mca-Pro-Leu-Gly-Leu-Dpa-Ala-Arg-NH2, Knight, C. G. et al., FEBS Lett. 296, 263-266 (1992), at 37° C. in 2.0 mL of assay buffer containing 50 mM Tris, pH 7.6, 0.2 M sodium chloride, 50 mM calcium chloride, and 0.02% Brij-35. The increase in fluorescence due to cleavage of Gly-Leu peptide bond by MMP-3 was monitored with Perkin-Elmer LS50B Fluorimeter (λex 328 nm, λem 393 nm, excitation slit 2.5, emission slit 10). Substrate and inhibitor stock solutions were made in DMF. For determination of Ki values for MMP-1 inhibitors, a series of intermediate inhibitor solutions were prepared in DMF and 1 or 2 μL of the diluted inhibitor solution was mixed with 1 μL of 2 mM substrate solution in DMF in a quartz cuvette containing 2 mL of assay buffer. The enzyme (10 μL of 0.2 μM […] dilution in assay buffer) was added at the last to start the reaction. For routine measurement of a Ki value for a reversible, competitive inhibitor, the initial rates in the presence of at least four inhibitor concentrations (two concentrations above Ki and two concentrations below Ki) were measured using [S]=1 μM (<<Km) and [MMP-1]=0.8 nM. Under these conditions, the measured Ki, app is close to true Ki.
as §1, with “is” for “was”, “v0/vi=(1+[I]/Ki, app)” for “V0/Vi=(1+[I]/Ki,app)”, “Ki=Ki, app/(1+[S]/Km),” for “Ki=Ki,app/(1+[S]/Km),”, “v0” for “V0”, “vi” for “Vi”, “vi.” for “Vi.”

[3] = Table 1, Mca-Pro-Leu-Gly-Leu-Dpa-Ala-Arg-NH2, 25° C.
[4] = Table 1, Mca-Pro-Leu-Gly-Leu-Dpa-Ala-Arg-NH2, 37° C.

T1 sequence (P39900 106-263 limits assumed): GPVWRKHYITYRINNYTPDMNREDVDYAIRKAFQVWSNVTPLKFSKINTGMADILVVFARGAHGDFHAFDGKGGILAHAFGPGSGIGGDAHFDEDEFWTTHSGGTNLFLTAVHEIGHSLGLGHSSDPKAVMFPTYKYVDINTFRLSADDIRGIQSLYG

Structure (SMILES) | Ki [1, 3] | Ki [2, 4] | Ki ([1]; Table 2 (comparative), method of Example D, 25° C.) | Ki ([2]; Table 2 (comparative), method of Example A, 37° C.)
CC(C)C[C@H](NC(=O)[C@@H](S)C(C)C)C(=O)N[C@@H](Cc1ccccc1)C(=O)O [Example 3, (S)-2-Mercapto-3-methylbutyroyl-(L)-leucyl-(L)-phenylalanine] | 14 nM | 518 nM | – | –
CSCC[C@H](NC(=O)[C@@H](S)C(C)C)C(=O)N[C@@H](Cc1ccccc1)C(=O)O [Example 4, (S)-2-Mercapto-3-methylbutyroyl-(L)-methionyl-(L)-phenylalanine] | 14 nM | 153 nM | – | –
CC(C)[C@H](S)C(=O)N[C@@H](CCCCN)C(=O)N[C@@H](Cc1ccccc1)C(=O)O [Example 5, (S)-2-Mercapto-3-methylbutyroyl-(L)-lysyl-(L)-phenylalanine trifluoroacetic acid salt] | 151 nM | 3910 nM | – | –
CNC(=O)[C@H](Cc1ccccc1)NC(=O)[C@H](CCc1ccccc1)NC(=O)C(S)C(C)C (stereo partly drawn) [Example 7, (S)-2-Mercapto-3-methylbutyroyl-(L)-homo-phenylalanyl-(L)-phenylalanine N-methyl amide, reference compound] | – | – | 0.6 nM | 465 nM
